{"source": "patent US9394228B2", "about": "“Methods of treatment using lipid compounds” (PRONOVA BIOPHARMA NORGE AS, priority 2010, dated 2016)", "key": {"[1]": {"biological_target": "T1, PPAR[…] (positive control rosiglitazone, i.e. PPARγ) (Homo sapiens, UniProt P37231)", "T1 construct": "expressed in transfected cells; host or cells: HEK293", "T1 sequence (P37231 238-503 limits assumed)": "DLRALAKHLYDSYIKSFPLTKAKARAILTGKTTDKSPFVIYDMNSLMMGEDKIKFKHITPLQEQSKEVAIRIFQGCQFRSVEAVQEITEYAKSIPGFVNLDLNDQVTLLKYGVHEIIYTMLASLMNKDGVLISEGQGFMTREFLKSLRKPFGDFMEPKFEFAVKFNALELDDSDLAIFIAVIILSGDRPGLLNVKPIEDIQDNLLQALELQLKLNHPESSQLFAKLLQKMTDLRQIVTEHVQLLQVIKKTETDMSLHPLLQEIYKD", "T1 sequence (P04386 1-147 partner limits assumed)": "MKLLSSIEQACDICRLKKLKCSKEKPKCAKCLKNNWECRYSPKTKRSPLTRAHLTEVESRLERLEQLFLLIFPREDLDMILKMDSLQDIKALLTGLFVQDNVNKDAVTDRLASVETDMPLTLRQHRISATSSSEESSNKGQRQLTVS", "test": "PPAR activation in vitro, mammalian-one-hybrid (M1H) GAL4-PPAR-LBD luciferase reporter assay", "format": "cell-based", "settings": "efficacy of positive control rosiglitazone set to 100%; HEK293 cells; third PPAR[…] column", "experimental": "(§1) Compounds (A)-(C) and a positive control were tested at six different concentrations in duplicate:\n(§2) The positive controls were GW7647 (PPAR[…]), GW501516 (PPAR[…]) and rosiglitazone (PPAR[…]). The efficacy of the controls were set to 100%.\n(§3) Assays were carried out in vitro using mammalian-one-hybrid assays (M1H) comprising GAL4-DNA binding domain-PPAR-LBD fusion constructs in conjunction with 5×GAL4-sites driven Photinus pyralis luciferase reporter constructs in transiently transfected HEK293 cells. The cells were transfected 4-6 hours and grown overnight before compounds were added. Compound incubation was 16-20 hours. Renilla reniformis luciferase, driven by a constitutive promoter, was included as internal control to improve experimental accuracy."}, "[2]": {"biological_target": "T2, PPAR[…] (positive control GW7647, i.e. PPARα) (Homo sapiens, UniProt Q07869)", "T2 construct": "expressed in transfected cells; host or cells: HEK293", "T2 sequence (Q07869 239-466 limits assumed, species assumed)": "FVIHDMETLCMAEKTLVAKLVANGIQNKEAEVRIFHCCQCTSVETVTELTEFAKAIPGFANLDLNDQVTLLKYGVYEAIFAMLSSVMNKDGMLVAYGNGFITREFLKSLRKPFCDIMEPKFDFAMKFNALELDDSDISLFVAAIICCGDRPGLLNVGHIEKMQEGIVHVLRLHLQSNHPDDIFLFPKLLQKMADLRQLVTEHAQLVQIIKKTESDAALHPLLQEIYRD", "T2 sequence (P04386 1-147 partner limits assumed, species assumed)": "as the sequence (P04386 1-147 partner limits assumed) above", "test": "PPAR activation in vitro, mammalian-one-hybrid (M1H) GAL4-PPAR-LBD luciferase reporter assay", "format": "cell-based", "settings": "efficacy of positive control GW7647 set to 100%; HEK293 cells; first PPAR[…] column", "experimental": "as §1, §2, §3"}, "[3]": {"biological_target": "T3, PPAR[…] (positive control GW501516, i.e. PPARδ) (Homo sapiens, UniProt Q03181)", "T3 construct": "expressed in transfected cells; host or cells: HEK293", "T3 sequence (Q03181 211-439 limits assumed)": "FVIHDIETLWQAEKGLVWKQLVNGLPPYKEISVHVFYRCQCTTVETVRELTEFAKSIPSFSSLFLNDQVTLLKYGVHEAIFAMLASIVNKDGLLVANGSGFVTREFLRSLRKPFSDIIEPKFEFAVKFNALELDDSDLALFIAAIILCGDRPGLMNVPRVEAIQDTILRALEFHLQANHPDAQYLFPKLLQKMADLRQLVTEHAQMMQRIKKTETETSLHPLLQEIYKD", "T3 sequence (P04386 1-147 partner limits assumed)": "as the sequence (P04386 1-147 partner limits assumed) above", "test": "PPAR activation in vitro, mammalian-one-hybrid (M1H) GAL4-PPAR-LBD luciferase reporter assay", "format": "cell-based", "settings": "second PPAR[…] column; for Efficacy: efficacy of positive control GW501516 set to 100%, HEK293 cells; for EC50: transiently transfected HEK293 cells, compound incubation 16-20 hours", "experimental": "as §1, §2, §3"}, "[4]": {"test_system": "APOE*3Leiden.CETP transgenic mice", "test": "Effects on in vivo atherosclerosis development in a mouse model", "source_text": "The APOE*3Leiden.CETP transgenic mouse has proven to be representative of the human situation with respect to plasma lipoprotein levels and its responsiveness to hypolipidemic drugs (like statins, fibrates etc.) and nutritional intervention. APOE*3Leiden.CETP mice develop atherosclerotic lesions in the aorta resembling those found in humans with respect to cellular composition and morphological and immunohistochemical characteristics.\nFemale APOE*3Leiden.CETP mice were put on a Western-type diet (WTD) with 0.15% cholesterol and 15% saturated fat; resulting in plasma cholesterol levels of about 13-15 mM. After a 3 week run-in period on the WTD, the mice were sub-divided into 4 groups of 15 mice, control (no treatment), Compound A of Example 2 above, fenofibrate and a low-cholesterol diet. The groups were matched for body weight, plasma total cholesterol (TC), HDL cholesterol (HDL-C) and triglycerides (TG) after 4 h fasting (t=0).\nThe test substances were administered orally as admix to the Western-type diet. To facilitate the mixing of the compounds sunflower oil was added to a total oil volume of 10 mL/kg diet. Compound (A) was tested at initially at 0.1 mmol/kg bw/day and reduced to 0.04 mmol/kg bw/day at 4 weeks; the initial dose was based on a prior dose-finding study to establish the required dosage that would reduce VLDL/LDL cholesterol by 25-30%. The fenofibrate dose was initially 10 mg/kg bw/day, and later reduced to 4.2 mg/kg bw/day to parallel reductions in VLDL/LDL cholesterol induced by Compound A.\nAt t=0 and t=17 weeks, blood samples were taken after a 4 hour-fast period to measure plasma cholesterol and triglycerides. Atherosclerosis development in aortic root (total lesion area) was measured at sacrifice.\nThe results for total cholesterol (mM), HDL cholesterol (mM), lesion area (μm^2*1000) and undiseased segments (%) are shown in FIGS. 4, 5, 6, and 7, respectively."}}, "data": [{"smiles": "CC/C=C\\C/C=C\\C/C=C\\C/C=C\\C/C=C\\CCCCO[C@H](CC)C(=O)O", "note": "[Compound C, (R)-2-((5Z,8Z,11Z,14Z,17Z)-icosa-5,8,11,14,17-pentaenyloxy)butanoic acid]", "values": [{"measurement": "Efficacy", "setting": "[1]", "value": 25, "unit": "%"}, {"measurement": "Efficacy", "setting": "[2]", "value": 54, "unit": "%"}, {"measurement": "Efficacy", "setting": "[3]", "value": "inactive"}, {"measurement": "EC50", "setting": "[3]", "value": "inactive"}]}, {"smiles": "CC/C=C\\C/C=C\\C/C=C\\C/C=C\\C/C=C\\CCCCOC(CC)C(=O)O", "note": "(stereo not shown) [Compound A, 2-((5Z,8Z,11Z,14Z,17Z)-icosa-5,8,11,14,17-pentaenyloxy)butanoic acid]", "values": [{"measurement": "Efficacy", "setting": "[1]", "value": 22, "unit": "%"}, {"measurement": "Efficacy", "setting": "[2]", "value": 82, "unit": "%"}, {"measurement": "Efficacy", "setting": "[3]", "value": "inactive"}, {"measurement": "EC50", "setting": "[3]", "value": "inactive"}, {"measurement": "development of atherosclerosis", "setting": "[4]; APOE*3Leiden.CETP transgenic mice, overall conclusion", "value": "inhibits"}, {"measurement": "lesion area", "setting": "[4]; aortic root, at sacrifice, as compared to control, p<0.003", "value": "significantly decreased"}, {"measurement": "total cholesterol", "setting": "[4]; as compared to control, p<0.001, oral admix to Western-type diet, 0.1 then 0.04 mmol/kg bw/day, t=17 weeks", "value": "significantly decreased"}, {"measurement": "HDL cholesterol", "setting": "[4]; as compared to control, p<0.003, oral admix to Western-type diet, 0.1 then 0.04 mmol/kg bw/day, t=17 weeks", "value": "significantly increased"}]}, {"smiles": "CC/C=C\\C/C=C\\C/C=C\\C/C=C\\C/C=C\\CCCCO[C@@H](CC)C(=O)O", "note": "[Compound B, (S)-2-((5Z,8Z,11Z,14Z,17Z)-icosa-5,8,11,14,17-pentaenyloxy)butanoic acid]", "values": [{"measurement": "Efficacy", "setting": "[1]", "value": 27, "unit": "%"}, {"measurement": "Efficacy", "setting": "[2]", "value": 86, "unit": "%"}, {"measurement": "Efficacy", "setting": "[3]", "value": "inactive"}, {"measurement": "EC50", "setting": "[3]", "value": "inactive"}]}]}
